Data: paper PMC8394784, “Analogs of a Natural Peptaibol Exert Anticancer Activity in Both Cisplatin- and Doxorubicin-Resistant Cells and in Multicellular Tumor Spheroids” (International Journal of Molecular Sciences, 2021)

Tests used:
A2780 = assay: cells; conditions: A2780, 24 h
Method: (§1) OvCa cells and fibroblasts were seeded in 96 well (10.0 × 10^3) the day before treatment to allow cell adherence. […] Half maximal inhibitory concentrations (IC50) were calculated using CalcuSyn software, v2.1 (Biosoft, Ferguson, MO, USA). Fold resistance (FR) was calculated as the ratio of the IC50 of drug-resistant cell line (KM-H2dx, HDLM-2dx, and A2780cis) to that of the respective parental cell line (KM-H2, HDLM-2, and A2780).

HDLM-2 = assay: cells; conditions: HDLM-2, 24 h
Method: as §1

KM-H2 = assay: cells; conditions: KM-H2, 24 h
Method: as §1

L-1236 = assay: cells; conditions: L-1236, 24 h
Method: as §1

L-428 = assay: cells; conditions: L-428, 24 h
Method: as §1

OVCAR5 = assay: cells
Method: as §1

SKOV3 = assay: cells
Method: as §1

[1] = tested on: A2780cis (cisplatin-resistant clone of A2780); assay: cells; conditions: for IC50: A2780cis, 24 h; for fold resistance (FR): ratio IC50 A2780cis / IC50 A2780
Method: (§2) Authenticated cHL-derived cell lines L-1236, L-428, KM-H2, and HDLM-2 were from DSMZ (Braunschweig, Germany). Doxorubicin-resistant KM-H2dx and HDLM-2dx cells were developed in our laboratory by continuous exposure of KM-H2 and HDLM-2 cells to 35 nM doxorubicin. HDLM-2dx and KM-H2dx cells were maintained in doxorubicin and cultured without the drug 72 h before use. All cell lines are here collectively called “cHL cells”. Authenticated OvCa cell lines A2780 and A2780cis were from Sigma-Aldrich, (Milano, Italy) SKOV3 (HTB-77) were obtained from the American Type Culture Collection (ATCC), OVCAR5 (NIH) were provided by Dr. Baldassarre (CRO, Aviano, Italy). A2780cis cells were maintained in 1 µM cisplatin and cultured without the drug for 72 h before use. […] Peripheral blood mononuclear cells (PBMCs) were obtained from healthy donor blood by density gradient centrifugation on a Ficoll-Paque PLUS (GE Healthcare); they were washed twice with PBS before use and cultured in RPMI-1640 medium containing 10% fetal bovine serum. Human dermal fibroblasts, a generous gift of Dr. Capuano [44], were maintained in Dulbecco′s Modified Eagle′s Medium (DMEM) high glucose (Gibco) plus 10% fetal bovine serum.
as §1

[2] = tested on: HDLM-2dx (doxorubicin-resistant clone of HDLM-2); assay: cells; conditions: for fold resistance (FR): ratio IC50 HDLM-2dx / IC50 HDLM-2
Method: as §2, §1

[3] = tested on: KM-H2dx (doxorubicin-resistant clone of KM-H2); assay: cells; conditions: for fold resistance (FR): ratio IC50 KM-H2dx / IC50 KM-H2
Method: as §2, §1

[4] = tested on: A2780, A2780cis, and KM-H2 cells; type: cell-based, human; conditions: 24 h
Method: Supplemental Figure S6. Cytotoxic activity of K6-FITC. A2780, A2780cis, and KM-H2 cells were cultured with K6-FITC. After 24 hours cell viability was evaluated by MTT assay for A2780 and A2780cis and by MTS assay for KM-H2 cells. Results are mean and SD of three independent experiments. IC50 was calculated using Calcusyn software.
(1 picture or pasted object on this page, not shown here)

A2780 and A2780cis = assay: K6-FITC uptake, time-lapse confocal microscopy with PI; type: cell-based, human; conditions: 30 µM K6-FITC, 37 °C
Method: (§3) The uptake of peptaibols was evaluated by confocal microscopy and flow cytometry using the fluorescent K6-FITC analog. For confocal microscopy, cells were plated onto glass bottom culture dishes and treated with K6-FITC (30 µM) and propidium iodide (PI) 2 µg/mL. K6-FITC uptake was monitored using confocal microscope in time-lapse xyzt acquisition mode (Leica DM IRE2) keeping cells at 37 °C and 5% CO2. To trace peptaibol penetration in spheroids, single four-day-old SKOV3-MCTs were incubated with K6-FITC (20 µM) and images acquired using confocal microscopy.

KM-H2 cells = assay: as above; type: cell-based, human; conditions: KM-H2, 30 µM K6-FITC, PI 2 µg/mL, 60 min of incubation, 37 °C
Method: as §3

SKOV3-MCTSs [5] = assay: K6-FITC penetration in spheroids, confocal microscopy; type: cell-based, human; conditions: 20 µM K6-FITC, four-day-old single spheroids, confocal time-lapse
Method: as §3

[6] = tested on: A2780 and HDLM-2 vs PBMCs and fibroblasts; assay: K6-FITC uptake by flow cytometry, tumor vs normal cells; type: cell-based, human; conditions: 0.25–2.5 µM K6-FITC, 5, 30 and 120 min, three independent experiments
Method: For flow cytometry, cells were treated with different concentrations of K6-FITC (0–2.5 µM). After 5, 30 and 120 min of incubation, cells were washed and evaluated for green fluorescence intensity by flow cytometry on a BD FACSCanto II flow cytometer. Annexin-V assay: cells were treated with peptaibols for 24 h, then stained for 15 min with FITC AnnexinV (Thermo Fisher Scientific, Monza, Italy) and 7-Amino-Actinomycin D (7AAD) (BD Pharmingen, Milano, Italy) and analyzed using flow cytometry. Data were analyzed using BD FACSDiva v.8.0.1 software (BD Biosciences, Milano, Italy).

[7] = tested on: human peripheral blood mononuclear cells (PBMCs); assay: Cytotoxicity in healthy cells, MTS assay; conditions: 24 h, mean (SD)
Method: (§4) Authenticated cHL-derived cell lines L-1236, L-428, KM-H2, and HDLM-2 were from DSMZ (Braunschweig, Germany). Doxorubicin-resistant KM-H2dx and HDLM-2dx cells were developed in our laboratory by continuous exposure of KM-H2 and HDLM-2 cells to 35 nM doxorubicin. HDLM-2dx and KM-H2dx cells were maintained in doxorubicin and cultured without the drug 72 h before use. All cell lines are here collectively called “cHL cells”. Authenticated OvCa cell lines A2780 and A2780cis were from Sigma-Aldrich, (Milano, Italy) SKOV3 (HTB-77) were obtained from the American Type Culture Collection (ATCC), OVCAR5 (NIH) were provided by Dr. Baldassarre (CRO, Aviano, Italy). A2780cis cells were maintained in 1 µM cisplatin and cultured without the drug for 72 h before use. […]
as §1

human fibroblasts = assay: Cytotoxicity in healthy cells, MTT assay; conditions: healthy human dermal fibroblasts, 24 h, mean (SD)
Method: as §4, §1

SKOV3-MCTSs [8] = assay: SKOV3 spheroid (MCTS) volume; type: cell-based, human; conditions: 25 µM, 3 days of treatment, four-day old single spheroids
Method: To obtain the 3 dimensional (3D) SKOV3-MCTSs, cells were cultured in non-adherent conditions on plates coated twice with 20 mg/mL of poly(2-hydroxyethyl methacrylate) (poly-HEMA; Sigma) in 95% ethanol. Single spheroids with defined size were generated by culturing 1.0 × 10^3 SKOV3 cells onto poly-HEMA-coated 96-well for 4 days. Then, single SKOV3-MCTSs were treated with increasing concentrations of peptaibols (0–25 µM). SKOV3-MCTSs size was measured and photographed up to 72 h after treatment initiation using an inverted microscope (Eclipse TS/100, Nikon) with the DS Camera Control Unit DS-L2 photo micrographic system. SKOV3-MCTSs volumes were calculated using the formula: (width^2 × length × 3.14)/6 [47].

SKOV3-MCTSs [9] = assay: SKOV3 spheroid cell viability, PrestoBlue; type: cell-based, human; conditions: 24 h treatment
Text: Multiple SKOV3-MCTSs were obtained by seeding 10.0 × 10^3 cells in non-adherent conditions.

SMILES	IC50 (A2780; MTT, mean (SD)) [µM]	IC50 (HDLM-2; MTS, mean (SD)) [µM]	IC50 (KM-H2; MTS, mean (SD)) [µM]	IC50 (L-1236; MTS, mean (SD)) [µM]	IC50 (L-428; MTS, mean (SD)) [µM]	IC50 (OVCAR5; OVCAR5, 24 h, MTT, mean (SD)) [µM]	IC50 (SKOV3; SKOV3, 24 h, MTT, mean (SD)) [µM]	IC50 ([1]; MTT, mean (SD)) [µM]	fold resistance (FR) [1]	IC50 ([2]; HDLM-2dx, 24 h, MTS, mean (SD)) [µM]	fold resistance (FR) [2]	IC50 ([3]; KM-H2dx, 24 h, MTS, mean (SD)) [µM]	fold resistance (FR) [3]	other results
N.N.[Cl][Pt][Cl] [Cisplatin, cisplatin]	1.3	1.3	0.5	0.8	0.5	7.7	7.7	10.4	8	4	3.11	1.2	2.6	–
CCCCCCCC(=O)NC(C)(C)C(=O)NCC(=O)N[C@@H](CC(C)C)C(=O)NC(C)(C)C(=O)NCC(=O)N[C@@H](CCCCN)C(=O)N[C@@H](CC(C)C)C(=O)NC(C)(C)C(=O)NCC(=O)N[C@H](C(=O)N[C@@H](CC(C)C)C(=O)NCCNC(=S)Nc1ccc2c(c1)C(=O)OC21c2ccc(O)cc2Oc2cc(O)ccc21)[C@@H](C)CC [K6-FITC]	24.5	–	30	–	–	–	–	29	–	–	–	–	–	IC50 [4]: ~30 µM; uptake (A2780 and A2780cis): rapidly taken up in both cell lines; uptake and PI staining (KM-H2 cells): all cells were double stained; penetration into SKOV3-MCTSs (SKOV3-MCTSs [5]): rapidly and deeply penetrated; uptake (mean fluorescence intensity) by tumor cells compared with normal cells [6]: in a higher quantity and in a faster way
CCCCCCCC(=O)NC(C)(C)C(=O)NCC(=O)N[C@@H](CC(C)C)C(=O)NC(C)(C)C(=O)NCC(=O)N[C@@H](CCCCN)C(=O)N[C@@H](CC(C)C)C(=O)NC(C)(C)C(=O)NCC(=O)N[C@H](C(=O)N[C@H](CO)CC(C)C)[C@@H](C)CC [K6-Lol]	7.9	12.6	7.5	11.7	8.9	7.5	8.4	9.1	–	11.9	~1	7.2	~1	IC50 [7]: 7.1 (0.4) µM; IC50 (human fibroblasts): 15.0 (1.4) µM; SKOV3-MCTS volume (SKOV3-MCTSs [8]): completely eliminated them; SKOV3-MCTS cell viability (SKOV3-MCTSs [9]): dose-dependent decrease
COc1cccc2c1C(=O)c1c(O)c3c(c(O)c1C2=O)C[C@@](O)(C(=O)CO)C[C@@H]3O[C@H]1C[C@H](N)[C@H](O)[C@H](C)O1 [Doxorubicin]	–	–	–	–	–	–	–	–	5.6	–	9	–	9	IC50 (A2780; Homo sapiens): 0.0204 µM; IC50 (HDLM-2; Homo sapiens): 0.0405 µM; IC50 (KM-H2; Homo sapiens): 0.0221 µM; IC50 (L-1236; Homo sapiens): 0.0464 µM; IC50 (L-428; Homo sapiens): 0.0184 µM; IC50 (OVCAR5; Homo sapiens, OVCAR-5, 24 h): 0.47 µM; IC50 (SKOV3; Homo sapiens, SK-OV-3, 24 h): 0.13 µM; IC50 ([1]; Homo sapiens): 0.116 µM; IC50 ([2]; Homo sapiens, HDLM-2, 24 h): 0.368 µM; IC50 ([3]; Homo sapiens, KM-H2, 24 h): 0.202 µM
